Data as given in ChEMBL document CHEMBL5331101, “Synthesis and evaluation of N-sulfonylpiperidine-3-carboxamide derivatives as capsid assembly modulators inhibiting HBV in vitro and in HBV-transgenic mice” (Eur J Med Chem, 2023).
Active and inactive are the calls of the source. The rule behind the calls is not given here.

Experiments:
Hepatitis B virus [1] = assay: Antiviral activity against HBV infected in human HePAD38 cells assessed as reduction in intracellular core HBV DNA level at 20 uM incubated for 6 days by qPCR analysis relative to control; format: functional; parameters: scale not given: the % may be the effect or the level left; details: time 6 day
Hepatitis B virus [2] = assay: Antiviral activity against HBV infected in human HePAD38 assessed as reduction on HBeAg level at 20 uM by ELISA analysis relative to control; format: functional; parameters: scale not given: the % may be the effect or the level left
Hepatitis B virus [3] = assay: Antiviral activity against HBV infected in human HePAD38 assessed as reduction on HBsAg level at 20 uM by ELISA analysis relative to control; format: functional; parameters: scale not given: the % may be the effect or the level left
Hepatitis B virus [4] = assay: Antiviral activity against HBV infected in human HePAD38 cells assessed as reduction of capsid associated HBV DNA; format: functional, organism-based
[5] = Cytotoxicity against human HepAD38 cells assessed as reduction in cell viability incubated for 6 days by CCK-8 assay; format: functional; details: HePAD38, 144 h, time 6 day
[6] = Selectivity index, ratio of CC50 for cytotoxicity against human HepAD38 cells to EC50 for antiviral activity against HBV infected in human HePAD38 cells; format: toxicity, cell-based; details: read-out: Ratio CC50/EC50
Hepatitis B virus [7] = assay: Antiviral activity against HBV infected in human HePAD38 cells assessed as decay of viral capsid protein by agarose gel electrophoresis-based assay; format: functional, organism-based
Hepatitis B virus [8] = assay: Antiviral activity against HBV infected in human HePAD38 cells assessed as decay of viral core protein by agarose gel electrophoresis-based assay; format: functional, organism-based
Hepatitis B virus [9] = assay: Antiviral activity against HBV infected in human HePAD38 cells assessed as reduction in capsid formation upto 10 uM measured for 6 days by agarose gel electrophoresis-based assay; format: functional, organism-based; details: time 6.0 day
Hepatitis B virus [10] = assay: Antiviral activity against HBV infected in human HePAD38 cells assessed as reduction in […] level upto10 uM measured for 6 days by agarose gel electrophoresis-based assay; format: functional, organism-based; details: dose 10.0 µM, time 6.0 day
Hepatitis B virus [11] = assay: Antiviral activity against HBV infected in human HePAD38 cells assessed as reduction in capsid formation at 0.625 to 10 uM measured for 6 days by agarose gel electrophoresis-based assay; format: functional, organism-based; details: dose 0.625-10 µM, time 6.0 day
Hepatitis B virus [12] = assay: Antiviral activity against HBV infected in human HePAD38 cells assessed as reduction in capsid formation measured for 6 days by agarose gel electrophoresis-based assay; format: functional, organism-based; details: time 6.0 day
Hepatitis B virus [13] = assay: Antiviral activity against HBV infected human HePAD38 cells assessed as reduction in HBeAg level in cell supernatant at 0.625 to 10 uM and measured after 6 days by ELISA analysis; format: functional, organism-based; details: dose 0.625-10 µM, time 6.0 day
Hepatitis B virus [14] = assay: Antiviral activity against HBV infected human HePAD38 cells assessed as reduction in HBsAg level in cell supernatant at 0.625 to 10 uM and measured after 6 days by ELISA analysis; format: functional, organism-based; details: dose 0.625-10 µM, time 6.0 day
Hepatitis B virus [15] = assay: Antiviral activity against HBV infected in human HePAD38 cells assessed as reduction in intracellular 3.5 Kb HBV RNA level at 0.625 to 10 uM and incubated for 6 days by Northern blot analysis; format: functional, organism-based; details: dose 0.625-10 µM, time 6.0 day
Hepatitis B virus [16] = assay: Antiviral activity against HBV infected in human HePAD38 cells assessed as reduction in intracellular 3.5 Kb HBV RNA level at 0.625 to 10 uM and incubated for 6 days by real-time PCR analysis; format: functional, organism-based; details: dose 0.625-10 µM, time 6.0 day
Hepatitis B virus [17] = assay: Antiviral activity against HBV infected in human HePAD38 cells assessed as reduction in HBV core DNA level and incubated for 6 days by southern blot analysis; format: functional, organism-based; details: dose 0.625-10 µM, time 6.0 day
Hepatitis B virus [18] = assay: Antiviral activity against HBV infected in human HePAD38 cells assessed as reduction in encapsidated pgRNA at 0.625 to 10 uM incubated for 6 days by northern blot analysis; format: functional, organism-based; details: dose 0.625-10 µM, time 6.0 day
Hepatitis B virus [19] = assay: Effect on capsid morphology in human HePAD38 cells infected with Hepatitis B virus at 5 uM incubated for 6 days by immunofluorescence analysis; format: functional, organism-based; details: time 6.0 day
Hepatitis B virus [20] = assay: Antiviral activity against HBV infected in human HepAD38 cells assessed as effect on capsid morphology at 20 uM incubated for 3 to 7 days by transmission electron microscopy; format: functional, organism-based; details: time 3-7 day
Hepatitis B virus [21] = assay: Antiviral activity against HBV genotype A infected in human HepG2 cells assessed as inhibition of viral replication; format: functional, organism-based
Hepatitis B virus [22] = assay: Antiviral activity against HBV genotype B infected in human HepG2 cells assessed as inhibition of viral replication; format: functional, organism-based
Hepatitis B virus [23] = assay: Antiviral activity against HBV genotype C infected in human HepG2 cells assessed as inhibition of viral replication; format: functional, organism-based
Hepatitis B virus [24] = assay: Antiviral activity against HBV genotype D infected in human HepG2 cells assessed as inhibition of viral replication; format: functional, organism-based
Hepatitis B virus [25] = assay: Antiviral activity against wild type HBV infected in human HepG2 cells assessed as inhibition of viral replication; format: functional, organism-based
Hepatitis B virus [26] = assay: Antiviral activity against ETV-resistant HBV infected in human HepG2 cells assessed as inhibition of viral replication; format: functional, organism-based
Hepatitis B virus [27] = assay: Antiviral activity against HBV infected in transgenic C57BL/6 mouse assessed as inhibition of viral replication by measuring log reduction in serum HBV DNA level at 100 mg/kg, po BID measured for 12 days by RT-PCR analysis; format: functional; details: time 12 day
Hepatitis B virus [28] = assay: Antiviral activity against HBV infected in transgenic C57BL/6 mouse assessed as inhibition of viral replication by measuring log reduction in serum HBV DNA level at 30 mg/kg, po BID measured for 12 days by RT-PCR analysis; format: functional; details: time 12 day
Hepatitis B virus [29] = assay: Antiviral activity against HBV infected in transgenic C57BL/6 mouse assessed as inhibition of viral replication by measuring log reduction in liver HBV DNA level at 30 mg/kg, po BID measured for 12 days by RT-PCR analysis; format: functional; details: time 12 day
Hepatitis B virus [30] = assay: Antiviral activity against HBV infected in transgenic C57BL/6 mouse assessed as inhibition of viral replication by measuring log reduction in liver HBV DNA level at 100 mg/kg, po BID measured for 12 days by RT-PCR analysis; format: functional; details: time 12 day
Hepatitis B virus [31] = assay: Antiviral activity against HBV infected in transgenic C57BL/6 mouse assessed as reduction in intrahepatic 3.5 kb HBV RNA level at 100 mg/kg, po BID measured for 12 days by RT-PCR analysis; format: functional, organism-based; details: time 12.0 day
Hepatitis B virus [32] = assay: Antiviral activity against HBV infected in transgenic C57BL/6 mouse assessed as reduction in intrahepatic 3.5 kb HBV RNA level at 30 mg/kg, po BID measured for 12 days by RT-PCR analysis; format: functional, organism-based; details: time 12.0 day
Hepatitis B virus [33] = assay: Antiviral activity against HBV infected in transgenic C57BL/6 mouse assessed as reduction in serum HBeAg level at 30 mg/kg, po BID measured for 12 days by ELISA analysis; format: functional, organism-based; details: time 12.0 day
Hepatitis B virus [34] = assay: Antiviral activity against HBV infected in transgenic C57BL/6 mouse assessed as reduction in serum HBeAg level at 100 mg/kg, po BID measured for 12 days by ELISA analysis; format: functional, organism-based; details: time 12.0 day
Hepatitis B virus [35] = assay: Antiviral activity against HBV infected in transgenic C57BL/6 mouse assessed as reduction in serum HBsAg level at 100 mg/kg, po BID measured for 12 days by ELISA analysis; format: functional, organism-based; details: time 12.0 day
Hepatitis B virus [36] = assay: Antiviral activity against HBV infected in transgenic C57BL/6 mouse assessed as reduction in serum HBsAg level at 30 mg/kg, po BID measured for 12 days by ELISA analysis; format: functional, organism-based; details: time 12.0 day
[37] = Hepatotoxicity in C57BL/6 mouse assessed as effect on AST level in serum at 30 mg/kg, po BID measured for 12 days; format: toxicity, organism-based; details: in vivo, 288 h, time 12 day
[38] = Hepatotoxicity in C57BL/6 mouse assessed as effect on AST level in serum at 100 mg/kg, po BID measured for 12 days; format: toxicity, organism-based; details: in vivo, 288 h, time 12 day
[39] = Hepatotoxicity in C57BL/6 mouse assessed as effect on ALT level in serum at 30 mg/kg, po BID measured for 12 days; format: toxicity, organism-based; details: in vivo, 288 h, time 12 day
[40] = Hepatotoxicity in C57BL/6 mouse assessed as effect on ALT level in serum at 100 mg/kg, po BID measured for 12 days; format: toxicity, organism-based; details: in vivo, 288 h, time 12 day
[41] = Toxicity in C57BL/6 mouse assessed as histopathological changes in liver at 100 mg/kg, po measured after 12 days by H and E staining analysis; format: organism-based; details: in vivo, 288 h, time 12 day
[42] = Toxicity in C57BL/6 mouse assessed as histopathological changes in liver at 30 mg/kg, po measured after 12 days by H and E staining analysis; format: organism-based; details: in vivo, 288 h, time 12 day

**Q.** What does the source list for `CCOC(=O)c1c(S(=O)(=O)N2CCC[C@H](C(=O)Nc3ccc(F)c(C)c3)C2)c(C)n(CC(F)(F)F)c1C`?
**A.** Activity (Hepatitis B virus [1]): 12%; Activity (Hepatitis B virus [2]): 36.9%; Activity (Hepatitis B virus [3]): 101.8%; EC50 (Hepatitis B virus [4]): 0.11 µM; CC50 [5]: 82.3 µM; selectivity ratio [6]: 775; Activity (Hepatitis B virus [7]): inactive; Activity (Hepatitis B virus [8]): inactive; Activity (Hepatitis B virus [9]): Active; Activity (Hepatitis B virus [10]): Active; Activity (Hepatitis B virus [11]): Active; Activity (Hepatitis B virus [12]): Dose-Dependent Effect; Activity (Hepatitis B virus [13]): Active; Activity (Hepatitis B virus [14]): inactive; Activity (Hepatitis B virus [15]): Active; Activity (Hepatitis B virus [16]): Active; Activity (Hepatitis B virus [17]): Dose-Dependent Effect; Activity (Hepatitis B virus [18]): Active; Activity (Hepatitis B virus [19]): inactive; Activity (Hepatitis B virus [20]): inactive; EC50 (Hepatitis B virus [21]): 0.13 µM; EC50 (Hepatitis B virus [22]): 0.12 µM; EC50 (Hepatitis B virus [23]): 0.16 µM; EC50 (Hepatitis B virus [24]): 0.24 µM; EC50 (Hepatitis B virus [25]): 0.0031 µM; EC50 (Hepatitis B virus [26]): 0.0072 µM; log(activity) (Hepatitis B virus [27]): 2.42; log(activity) (Hepatitis B virus [28]): 1.37; log(activity) (Hepatitis B virus [29]): 0.43; log(activity) (Hepatitis B virus [30]): 0.98; Activity (Hepatitis B virus [31]): Active; Activity (Hepatitis B virus [32]): Active; Activity (Hepatitis B virus [33]): Active; Activity (Hepatitis B virus [34]): Active; Activity (Hepatitis B virus [35]): inactive; Activity (Hepatitis B virus [36]): inactive; Activity [37]: Non-Toxic; Activity [38]: Non-Toxic; Activity [39]: Non-Toxic; Activity [40]: Non-Toxic; Activity [41]: Non-Toxic; Activity [42]: Non-Toxic
